Here are results for two compounds from BindingDB's records for doi:10.7270/Q2H70D7S (Burnham Center For Chemical Genomics, 2010).

For the experiment, the target named is Kappa-type opioid receptor (Homo sapiens, UniProt P41145). The experiment in a line: kappa opioid receptor blockers, cell-based, luminescence, beta-arrestin, SAR follow-up (AID 2285).

Molecules are shown by their SMILES.

Kappa-type opioid receptor, sequence (P41145 whole entry): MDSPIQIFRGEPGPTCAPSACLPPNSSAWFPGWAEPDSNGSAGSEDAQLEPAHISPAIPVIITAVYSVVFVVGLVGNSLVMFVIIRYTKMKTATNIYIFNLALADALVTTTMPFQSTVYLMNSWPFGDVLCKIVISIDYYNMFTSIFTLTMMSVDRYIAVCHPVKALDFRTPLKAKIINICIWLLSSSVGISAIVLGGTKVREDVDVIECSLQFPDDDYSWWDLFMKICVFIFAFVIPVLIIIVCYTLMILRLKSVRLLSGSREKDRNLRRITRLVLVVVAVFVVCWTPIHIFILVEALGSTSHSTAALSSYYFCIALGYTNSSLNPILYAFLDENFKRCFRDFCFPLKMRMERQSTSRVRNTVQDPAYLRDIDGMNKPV

Consider `CCC(N=Nc1ccnc2cc(Cl)ccc12)c1ccc(O)cc1` (configuration not stated) [4-[1-[2-(7-chloroquinolin-4-yl)hydrazinyl]propylidene]cyclohexa-2,5-dien-1-one], for which the IC50 was found to be 3.54 µM. For `Oc1ccc(CN=Nc2ccnc3cc(Cl)ccc23)cc1O` [(4Z)-4-[[2-(7-chloroquinolin-4-yl)hydrazinyl]methylidene]-2-hydroxycyclohexa-2,5-dien-1-one] the value was 10 µM.
